Experimental data: patent US6784185B2, “Pharmaceutically active compounds” (Pfizer Inc., priority 2001, dated 2004)

Molecular target: T1, cGMP-specific PDE (PDE5) (Homo sapiens, UniProt O76074)
T1 construct: obtained from human corpus cavernosum tissue or human platelets; from tissue; host or cells: human corpus cavernosum tissue or human platelets
Assay: In vitro PDE inhibitory activity, cGMP PDE5
Format: biochemical
Conditions: enzyme from human corpus cavernosum tissue or human platelets; low substrate such that IC50≅Ki
Method: The compounds of the present invention are potent and selective cGMP PDE5 inhibitors. In vitro PDE inhibitory activities against cyclic guanosine 3′,5′-monophosphate (cGMP) and cyclic adenosine 3′,5′-monophosphate (cAMP) phosphodiesterases were determined by measurement of their IC50 values (the concentration of compound required for 50% inhibition of enzyme activity).
The required PDE enzymes were isolated from a variety of sources, including human corpus cavernosum, human platelets, human cardiac ventricle, human skeletal muscle and human and canine retina, essentially by the method of W. J. Thompson and M. M. Appleman (Biochem., 1971, 10, 311). In particular, the cGMP-specific PDE (PDE5) and the cGMP-inhibited cAMP PDE (PDE3) were obtained from human corpus cavernosum tissue or human platelets; the cGMP-stimulated PDE (PDE2) was obtained from human corpus cavernosum or human platelets; the calcium/calmodulin (Ca/CAM)-dependent PDE (PDE1) from human cardiac ventricle; the cAMP-specific PDE (PDE4) from recombinant clone or human skeletal muscle; and the photoreceptor PDE (PDE6) from canine or human retina. Phosphodiesterases 7-11 were generated from full length human recombinant clones transfected into SF9 cells.
Assays were performed either using a modification of the “batch” method of W. J. Thompson et al. (Biochem., 1979, 18, 5228) or using a scintillation proximity assay for the direct detection of AMP/GMP using a modification of the protocol described by Amersham plc under product code TRKQ7090/7100. In summary, the effect of PDE inhibitors was investigated by assaying a fixed amount of enzyme in the presence of varying inhibitor concentrations and low substrate, (cGMP or cAMP in a 3:1 ratio unlabelled to [^3H]-labeled at a conc ˜1/2 Km) such that IC50≅Ki. The final assay volume was made up to 102 μl with assay buffer [20 mM Tris-HCl pH 7.4, 5 mM MgCl2, 1 mg/ml bovine serum albumin]. Reactions were initiated with enzyme, incubated for 30-60 min at 30° C. to give <30% substrate turnover and terminated with 50 μl yttrium silicate SPA beads (containing 3 mM of the respective unlabelled cyclic nucleotide for PDEs 3, 9 and 11). Plates were re-sealed and shaken for 20 min, after which the beads were allowed to settle for 30 min in the dark and then counted on a TopCount plate reader (Packard, Meriden, Conn.). Radioactivity units were converted to % activity of an uninhibited control (100%), plotted against inhibitor concentration and inhibitor IC50 values obtained using the ‘Fit Curve’ Microsoft Excel extension or in-house equivalent.

SMILES | IC50 [nM]
CCCCOc1ccc(C(C)=O)cc1-c1nc2c(CC)n(C3CN(C(C)C)C3)nc2c(=O)[nH]1 [Example 3] | 23
CCCOc1ccc(C(C)=O)cc1-c1nc2c(CC)n(CC(=O)OC(C)(C)C)nc2c(=O)[nH]1 [Example 6] | 2.2
CCc1c2nc(-c3cc(C(C)=O)ccc3OCC(C)C)[nH]c(=O)c2nn1C1CN(C2CCC2)C1 [Example 2] | 13.8

Now from value to compound:

IC50 [nM] | SMILES
11.9 | CCCOc1ccc(C(C)=O)cc1-c1nc2c(CC)n(CC(=O)N(C)C)nc2c(=O)[nH]1 [Example 13, 2-[5-(5-Acetyl-2-propoxyphenyl)-3-ethyl-7-oxo-6,7-dihydro-2H-pyrazolo[4,3-d]pyrimidin-2-yl]-N,N-dimethylacetamide]
1.8 | CCCOc1ccc(C(C)=O)cc1-c1nc2c(CC)n(CCCC(=O)O)nc2c(=O)[nH]1 [Example 12, 4-[5-(5-Acetyl-2-propoxyphenyl)-3-ethyl-7-oxo-6,7-dihydro-2H-pyrazolo[4,3-d]pyrimidin-2-yl]butanoic Acid]
